Assay results published in US8895518B2, “Cooperative conveyance of basic active principles by amphiphilic acid molecules” (Centre National de la Recherche Scientifique, priority 2009, dated 2014).
Counter-ions that a name gives are not always drawn.

Experiments:
Format in all cases: physicochemical
[1] = Photodegradation monitored by UV / visible spectrophotometry; conditions: after two months under natural exposure; for λmax (nm): visible range
Description: The study of the photophysical properties of promethazine hydrochloride and the association Lac6P on the one hand, and mequitazine hydrochloride and the association Lac6M on the other, was thus undertaken by UV spectrophotometry.
This study was carried out on a Hewlett-Packard 8452A diode array spectrophotometer operating at wavelengths between 190 nm and 820 nm.
The solutions were analyzed in quartz cells at concentrations of 4×10 ^−2 M and 6.6×10^−5 M.
(§1) To carry out this study, the various solutions (4×10^−2 M) are placed in a 25° C. water bath under natural light for several weeks. This gentler mode of irradiation was preferred over the use of a Xenon lamp which degrades the active principle too rapidly and makes it impossible to establish a comparison.
However, in order to better understand this phenomenon, photodegradation of the hydrochlorides and the associations Lac6P and Lac6M was monitored by visible spectrophotometry. This analysis technique is particularly suited to the study of this phenomenon because it takes color variations into account.
After two months under natural exposure, the appearance of a band for promethazine and mequitazine hydrochlorides, as well as for the catanionic association Lac6P, confirms the color changes observed. It is important to note that in visible spectrophotometry, perceived color is always complementary to absorbed radiation. For example, mequitazine hydrochloride absorbs in the green spectrum (λ=512 nm) and appears pink-purple.

[2] = Photostability under natural light, visual observations; conditions: 4×10^−2 M solution, 25° C. water bath
Description: as §1

[3] = Photodegradation quantified by HPLC (undegraded active principle in solution); conditions: after five days under natural light, 4×10^−2 M
Description: Promethazine photodegradation was monitored by HPLC on a Waters 2695 chromatograph equipped with Millipore 510 pumps and an XBridge RP18 column (2.1×100 nm, 3.5 μm). Promethazine is detected by UV-visible spectrophotometry, at a wavelength of 251 nm, with a Waters 2487 Dual λ Absorbance Detector. The mobile phase is composed of a 22/78 mixture of 0.1% formic acid in water and acetonitrile. Elution is carried out in isocratic mode with a flow rate of 0.35 ml/min^−1. The volumes injected are 10 μl. All the samples were injected three times.
A calibration curve is prepared beforehand with promethazine hydrochloride over a range of concentrations between 10^5 M and 5×10^−2 M.
In order to refine the results obtained, degradation of promethazine hydrochloride and the catanionic association Lac6P was quantified by high-performance liquid chromatography (HPLC). Degradation is monitored by assaying the quantity of undegraded active principle present in solution (FIG. 2).

Structure (SMILES)	Color observed [1]	λmax (nm) [1] [nm]	appearance of an insoluble product (visual observation) [2]	colour change of the solution (visual observation) [2]	degradation rate [3] [%]
CC(CN1c2ccccc2Sc2ccccc21)N(C)C (centres unmarked) [Promethazine hydrochloride, promethazine hydrochloride]	violet-indigo	538	an insoluble compound appears after about two weeks under natural light	turns pink after 24 hours of exposure and changes to blue-violet after a few days	13
c1ccc2c(c1)Sc1ccccc1N2CC1CN2CCC1CC2 (centres unmarked) [Mequitazine hydrochloride, mequitazine hydrochloride]	pink-purple	512		turns pink after ten days of exposure, and then changes no further	
